From patent US20120010292A1, “MODIFICATION I OF 4-(PHENYL)ETHYL]-AMINO}METHYL)BENZOIC ACID” (BAYER SCHERING PHARMA AKTIENGESELLSCHAFT, priority 2008, published 2012) come the findings set out here.

The series can be described thus: Stability of the crystal modification (thermodynamic and storage stability). It is filed as physicochemical. The conditions noted are these: for thermodynamic stability of the crystal modification: solid form of the compound of the formula (I).

On to `O=C(O)CCCCN(CCc1ccccc1OCc1ccc(CCc2ccccc2)cc1)Cc1ccc(C(=O)O)cc1` [modification I, 4-({(4-carboxybutyl)[2-(2-{[4-(2-phenylethyl)benzyl]oxy}phenyl)ethyl]amino}-methyl)benzoic acid], for which the “thermodynamic stability of the crystal modification” value was “thermodynamically stable”. Moreover, where the note is “even after processing to suspensions”, the storage stability result is given as “storage-stable”.
For `O=C(O)CCCCN(CCc1ccccc1OCc1ccc(CCc2ccccc2)cc1)Cc1ccc(C(=O)O)cc1` [modification IV, 4-({(4-Carboxybutyl)[2-(2-{[4-(2-phenylethyl)benzyl]oxy}phenyl)ethyl]amino}methyl)benzoic acid], the “thermodynamic stability of the crystal modification” value is reported as “metastable”.
